Test results published in patent publication US11420967B2 (priority 2018, dated 2022).

Tests used:
[1] = biological target: T1, cannabinoid CB1 receptor (hCB1) (Homo sapiens, UniProt P21554); assay: β-arrestin recruitment in hCB1-transfected HEK293 cells; type: cell-based; conditions: β-arrestin recruitment
T1 construct: expressed in transfected cells; host or cells: HEK293

[2] = biological target: T2, cannabinoid CB2 receptor (hCB2) (Homo sapiens, UniProt P34972); assay: β-arrestin recruitment in hCB2-transfected HEK293 cells; type: cell-based; conditions: β-arrestin recruitment
T2 construct: expressed in transfected cells; host or cells: HEK293
T2 sequence (P34972 whole entry): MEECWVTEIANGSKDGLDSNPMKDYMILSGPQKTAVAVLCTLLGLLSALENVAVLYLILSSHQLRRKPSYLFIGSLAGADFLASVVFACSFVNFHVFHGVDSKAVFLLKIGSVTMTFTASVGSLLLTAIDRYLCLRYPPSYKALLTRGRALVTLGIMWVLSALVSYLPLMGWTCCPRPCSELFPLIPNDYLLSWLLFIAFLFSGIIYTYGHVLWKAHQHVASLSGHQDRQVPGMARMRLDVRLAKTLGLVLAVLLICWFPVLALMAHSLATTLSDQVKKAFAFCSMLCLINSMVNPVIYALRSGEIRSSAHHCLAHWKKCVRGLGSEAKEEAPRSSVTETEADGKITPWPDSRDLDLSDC

T1 sequence (P21554 whole entry): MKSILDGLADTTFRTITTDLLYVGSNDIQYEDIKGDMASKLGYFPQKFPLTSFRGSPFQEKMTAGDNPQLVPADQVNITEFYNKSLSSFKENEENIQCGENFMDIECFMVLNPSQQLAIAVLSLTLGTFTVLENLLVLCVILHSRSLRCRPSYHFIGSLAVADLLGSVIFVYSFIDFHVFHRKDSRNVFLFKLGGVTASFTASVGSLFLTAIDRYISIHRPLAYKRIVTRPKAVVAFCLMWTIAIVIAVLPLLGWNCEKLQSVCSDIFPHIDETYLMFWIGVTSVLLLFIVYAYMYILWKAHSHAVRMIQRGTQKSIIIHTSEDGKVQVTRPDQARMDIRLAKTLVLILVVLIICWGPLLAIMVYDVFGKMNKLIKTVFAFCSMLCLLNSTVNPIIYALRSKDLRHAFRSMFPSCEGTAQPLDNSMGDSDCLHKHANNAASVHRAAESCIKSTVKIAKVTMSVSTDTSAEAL

CCCCCCC(C)(C)c1ccc([C@@H]2C[C@H](O)CC[C@H]2CCCO)c(O)c1 [positive control, CP55940, reference compound]
Agonist efficacy (% activation) CB1 [1]: 1940 % activation
Antagonist efficacy (% activation) CB1 [1]: 97 % activation
Antagonist efficacy (% activation) CB2 [2]: 92 % activation
